According to patent US7015215B2, “Pyrrolo[2,1-c][1,4] benzodiazepines compounds and process thereof” (Council of Scientific and Industrial Research, priority 2003, dated 2006):

Legend:
TK-10 = assay: NCI SRB cytotoxicity, Renal TK-10; format: cell-based, human; conditions: TK-10, Renal, 48 h
Procedure: (§1) Biological Activity: In vitro biological activity studies were carried out at National Cancer Institute (U.S.A.).
(§2) For each compound, dose response curves for each cell line were measured at a minimum of five concentrations at 10 fold dilutions. A protocol of 48 h continuous drug exposure was used, and a sulforhodamine B (SRB) protein assay was used to estimate cell viability or growth. The concentration causing 50% cell growth inhibition (GI50), total cell growth inhibition (TGI, 0% growth) and 50% cell death (LC50, −50% growth) compared with the control was calculated.

NCI-H322 = assay: NCI SRB cytotoxicity, Non-small-cell lung NCI-H322; format: cell-based, human; conditions: 48 h
Procedure: as §1, §2

MOLT-4 = assay: NCI SRB cytotoxicity, Leukemia MOLT-4; format: cell-based, human; conditions: MOLT-4, Leukemia, 48 h
Procedure: as §1, §2

T-47D = assay: NCI SRB cytotoxicity, Breast T-47D; format: cell-based, human; conditions: 48 h
Procedure: as §1, §2

SF-539 = assay: NCI SRB cytotoxicity, CNS SF-539; format: cell-based, human; conditions: SF-539, CNS, 48 h
Procedure: as §1, §2

RPMI-8226 = assay: NCI SRB cytotoxicity, Leukemia RPMI-8226; format: cell-based, human; conditions: RPMI-8226, Leukemia, 48 h
Procedure: as §2

NCI/ADR-RES = assay: NCI SRB cytotoxicity, Breast NCI/ADR-RES; format: cell-based, human; conditions: 48 h
Procedure: as §1, §2

UACC-257 = assay: NCI SRB cytotoxicity, Melanoma UACC-257; format: cell-based, human; conditions: UACC-257, Melanoma, 48 h
Procedure: as §1, §2

A549/ATCC = assay: NCI SRB cytotoxicity, Non-small-cell lung A549/ATCC; format: cell-based, human; conditions: 48 h
Procedure: as §1, §2

SNB-75 = assay: NCI SRB cytotoxicity, CNS SNB-75; format: cell-based, human; conditions: SNB-75, CNS, 48 h
Procedure: as §1, §2

K-62 = assay: NCI SRB cytotoxicity, Leukemia K-62; format: cell-based, human; conditions: K-62, Leukemia, 48 h
Procedure: as §1, §2

SN12C = assay: NCI SRB cytotoxicity, Renal SN12C; format: cell-based, human; conditions: 48 h
Procedure: as §1, §2

UACC-62 = assay: NCI SRB cytotoxicity, Melanoma UACC-62; format: cell-based, human; conditions: UACC-62, Melanoma, 48 h
Procedure: as §1, §2

SR = assay: NCI SRB cytotoxicity, Leukemia SR; format: cell-based, human; conditions: 48 h
Procedure: as §1, §2

SK-MEL-28 = assay: NCI SRB cytotoxicity, Melanoma SK-MEL-28; format: cell-based, human; conditions: SK-MEL-28, Melanoma, 48 h
Procedure: as §1, §2

U251 = assay: NCI SRB cytotoxicity, CNS U251; format: cell-based, human; conditions: 48 h
Procedure: as §1, §2

A498 = assay: NCI SRB cytotoxicity, Renal A498; format: cell-based, human; conditions: 48 h
Procedure: as §1, §2

CAKI-1 = assay: NCI SRB cytotoxicity, Renal CAKI-1; format: cell-based, human; conditions: CAKI-1, Renal, 48 h
Procedure: as §1, §2

SK-MEL-5 = assay: NCI SRB cytotoxicity, Melanoma SK-MEL-5; format: cell-based, human; conditions: SK-MEL-5, Melanoma, 48 h
Procedure: as §1, §2

786-0 = assay: NCI SRB cytotoxicity, Renal 786-0; format: cell-based, human; conditions: 786-0, Renal, 48 h
Procedure: as §1, §2

NCI-H460 = assay: NCI SRB cytotoxicity, Non-small-cell lung NCI-H460; format: cell-based, human; conditions: 48 h
Procedure: as §1, §2

BT-549 = assay: NCI SRB cytotoxicity, Breast BT-549; format: cell-based, human; conditions: BT-549, Breast, 48 h
Procedure: as §1, §2

HOP-92 = assay: NCI SRB cytotoxicity, Non-small-cell lung HOP-92; format: cell-based, human; conditions: HOP-92, Non-small-cell lung, 48 h
Procedure: as §1, §2

M14 = assay: NCI SRB cytotoxicity, Melanoma M14; format: cell-based, human; conditions: 48 h
Procedure: as §1, §2

EKVX = assay: NCI SRB cytotoxicity, Non-small-cell lung EKVX; format: cell-based, human; conditions: 48 h
Procedure: as §1, §2

SK-MEL-2 = assay: NCI SRB cytotoxicity, Melanoma SK-MEL-2; format: cell-based, human; conditions: SK-MEL-2, Melanoma, 48 h
Procedure: as §1, §2

ACHN = assay: NCI SRB cytotoxicity, Renal ACHN; format: cell-based, human; conditions: 48 h
Procedure: as §1, §2

UO-31 = assay: NCI SRB cytotoxicity, Renal UO-31; format: cell-based, human; conditions: UO-31, Renal, 48 h
Procedure: as §2

COLO 205 = assay: NCI SRB cytotoxicity, Colon COLO 205; format: cell-based, human; conditions: COLO 205, Colon, 48 h
Procedure: as §1, §2

RXF 393 = assay: NCI SRB cytotoxicity, Renal RXF 393; format: cell-based, human; conditions: RXF 393, Renal, 48 h
Procedure: as §2

MDA-MB-231/ATCC = assay: NCI SRB cytotoxicity, Breast MDA-MB-231/ATCC; format: cell-based, human; conditions: 48 h
Procedure: as §1, §2

HL-60(TB) = conditions: Leukemia, 48 h, SRB
Procedure: as §1, §2

HCC-2998 = assay: NCI SRB cytotoxicity, Colon HCC-2998; format: cell-based, human; conditions: HCC-2998, Colon, 48 h
Procedure: as §1, §2

OVCAR-3 = assay: NCI SRB cytotoxicity, Ovarian OVCAR-3; format: cell-based, human; conditions: OVCAR-3, Ovarian, 48 h
Procedure: as §1, §2

DU-145 = assay: NCI SRB cytotoxicity, Prostate DU-145; format: cell-based, human; conditions: DU-145, Prostate, 48 h
Procedure: as §2

SF-268 = assay: NCI SRB cytotoxicity, CNS SF-268; format: cell-based, human; conditions: SF-268, CNS, 48 h
Procedure: as §1, §2

human tumor cell lines = assay: NCI in vitro cytotoxicity SRB assay, mean graph midpoints over the panel; format: cell-based; conditions: 48 h continuous exposure
Procedure: as §1, §2

SW-620 = assay: NCI SRB cytotoxicity, Colon SW-620; format: cell-based, human; conditions: SW-620, Colon, 48 h
Procedure: as §1, §2

COc1cc2c(cc1OCCCCN1CCN(CCCCOc3cc4c(cc3OC)C(=O)N3CCC[C@H]3C=N4)CC1)N=C[C@@H]1CCCN1C2=O [Compound VIc, 1,1′-{[(bisbutane-1,N-diyl)piperazine]dioxy}bis[(11aS)-7-methoxy-1,2,3,11a-tetrahydro-5H-pyrrolo[2,1-c][1,4]benzodiazepin-5-one]]
Log GI 50 (TK-10): −7.69 mol/L | Log LC 50 (TK-10): −4.00 mol/L | Log GI 50 (NCI-H322): −7.59 mol/L | Log LC 50 (NCI-H322): −4.00 mol/L | Log LC 50 (MOLT-4): −4.00 mol/L | Log LC 50 (T-47D): −4.00 mol/L | Log LC 50 (SF-539): −4.00 mol/L | Log GI 50 (RPMI-8226): −7.81 mol/L | Log LC 50 (RPMI-8226): −4.60 mol/L | Log GI 50 (NCI/ADR-RES): −6.47 mol/L | Log LC 50 (NCI/ADR-RES): −4.00 mol/L | Log GI 50 (UACC-257): −7.65 mol/L | Log GI 50 (A549/ATCC): −7.23 mol/L | Log LC 50 (A549/ATCC): −4.00 mol/L | Log GI 50 (SNB-75): −7.94 mol/L | Log LC 50 (SNB-75): −4.00 mol/L | Log GI 50 (K-62): −7.63 mol/L | Log LC 50 (K-62): −4.00 mol/L | Log LC 50 (SN12C): −4.00 mol/L | Log LC 50 (UACC-62): −7.35 mol/L | Log LC 50 (SR): −5.62 mol/L | Log GI 50 (SK-MEL-28): −7.69 mol/L | Log LC 50 (SK-MEL-28): −4.00 mol/L | Log LC 50 (U251): −4.41 mol/L | Log GI 50 (A498): −6.89 mol/L | Log LC 50 (CAKI-1): −4.28 mol/L | Log GI 50 (SK-MEL-5): −7.86 mol/L | Log LC 50 (SK-MEL-5): −6.68 mol/L | Log LC 50 (786-0): −4.00 mol/L | Log LC 50 (NCI-H460): −4.00 mol/L | Log GI 50 (BT-549): −7.68 mol/L | Log LC 50 (BT-549): −4.00 mol/L | Log LC 50 (HOP-92): −4.00 mol/L | Log GI 50 (M14): −7.60 mol/L | Log LC 50 (M14): −4.17 mol/L | Log GI 50 (EKVX): −6.36 mol/L | Log LC 50 (EKVX): −4.00 mol/L | Log GI 50 (SK-MEL-2): −7.34 mol/L | Log LC 50 (SK-MEL-2): −4.00 mol/L | Log LC 50 (ACHN): −4.00 mol/L | Log GI 50 (UO-31): −6.65 mol/L | Log LC 50 (UO-31): −4.00 mol/L | Log GI 50 (COLO 205): −7.99 mol/L | Log LC 50 (COLO 205): −6.26 mol/L | Log GI 50 (RXF 393): −7.54 mol/L | Log LC 50 (RXF 393): −4.00 mol/L | Log GI 50 (MDA-MB-231/ATCC): −7.47 mol/L | Log LC 50 (MDA-MB-231/ATCC): −4.43 mol/L | Log LC 50 (HL-60(TB)): −4.00 mol/L | Log GI 50 (HCC-2998): −7.95 mol/L | Log LC 50 (HCC-2998): −4.00 mol/L | Log GI 50 (OVCAR-3): −7.91 mol/L | Log LC 50 (OVCAR-3): −4.00 mol/L | Log GI 50 (DU-145): −7.60 mol/L | Log LC 50 (DU-145): −4.00 mol/L | Log LC 50 (SF-268): −4.00 mol/L | Log10 GI50 mean graph midpoint (MG_MID) (human tumor cell lines): −7.70 | Log10 LC50 mean graph midpoint (MG_MID) (human tumor cell lines): −4.47 | Log10 TGI mean graph midpoint (MG_MID) (human tumor cell lines): −5.95

COc1cc2c(cc1OCCCCCN1CCN(CCCCCOc3cc4c(cc3OC)C(=O)N3CCC[C@H]3C=N4)CC1)N=C[C@@H]1CCCN1C2=O [Compound VId]
Log LC 50 (TK-10): −4.00 mol/L | Log GI 50 (NCI-H322): −4.65 mol/L | Log LC 50 (NCI-H322): −4.00 mol/L | Log GI 50 (MOLT-4): −4.79 mol/L | Log LC 50 (MOLT-4): −4.00 mol/L | Log GI 50 (T-47D): −5.00 mol/L | Log LC 50 (T-47D): −4.00 mol/L | Log GI 50 (SF-539): −5.44 mol/L | Log LC 50 (SF-539): −4.00 mol/L | Log GI 50 (RPMI-8226): −5.59 mol/L | Log LC 50 (RPMI-8226): −4.54 mol/L | Log GI 50 (NCI/ADR-RES): −4.00 mol/L | Log LC 50 (NCI/ADR-RES): −4.00 mol/L | Log GI 50 (UACC-257): −4.75 mol/L | Log LC 50 (UACC-257): −4.00 mol/L | Log GI 50 (A549/ATCC): −4.66 mol/L | Log LC 50 (A549/ATCC): −4.00 mol/L | Log GI 50 (SNB-75): −4.51 mol/L | Log LC 50 (SNB-75): −4.00 mol/L | Log GI 50 (K-62): −5.46 mol/L | Log LC 50 (K-62): −4.20 mol/L | Log GI 50 (SN12C): −5.66 mol/L | Log LC 50 (SN12C): −4.00 mol/L | Log GI 50 (UACC-62): −5.64 mol/L | Log LC 50 (UACC-62): −4.00 mol/L | Log GI 50 (SR): −5.37 mol/L | Log LC 50 (SR): −4.00 mol/L | Log GI 50 (SK-MEL-28): −4.71 mol/L | Log LC 50 (SK-MEL-28): −4.00 mol/L | Log GI 50 (U251): −5.47 mol/L | Log LC 50 (U251): −4.00 mol/L | Log GI 50 (A498): −5.00 mol/L | Log LC 50 (A498): −4.00 mol/L | Log GI 50 (CAKI-1): −5.77 mol/L | Log LC 50 (CAKI-1): −4.00 mol/L | Log GI 50 (SK-MEL-5): −5.48 mol/L | Log LC 50 (SK-MEL-5): −4.00 mol/L | Log GI 50 (786-0): −5.61 mol/L | Log LC 50 (786-0): −4.00 mol/L | Log GI 50 (NCI-H460): −5.49 mol/L | Log LC 50 (NCI-H460): −4.00 mol/L | Log GI 50 (SW-620): −5.49 mol/L | Log LC 50 (SW-620): −4.00 mol/L | Log GI 50 (BT-549): −5.31 mol/L | Log LC 50 (BT-549): −4.00 mol/L | Log GI 50 (HOP-92): −5.46 mol/L | Log LC 50 (HOP-92): −4.00 mol/L | Log GI 50 (M14): −4.76 mol/L | Log GI 50 (EKVX): −4.33 mol/L | Log LC 50 (EKVX): −4.00 mol/L | Log GI 50 (ACHN): −4.63 mol/L | Log LC 50 (ACHN): −4.00 mol/L | Log GI 50 (UO-31): −4.00 mol/L | Log LC 50 (UO-31): −4.00 mol/L | Log GI 50 (COLO 205): −5.49 mol/L | Log LC 50 (COLO 205): −4.00 mol/L | Log GI 50 (RXF 393): −8.00 mol/L | Log LC 50 (RXF 393): −5.09 mol/L | Log GI 50 (MDA-MB-231/ATCC): −5.42 mol/L | Log LC 50 (MDA-MB-231/ATCC): −4.00 mol/L | Log GI 50 (HL-60(TB)): −5.38 mol/L | Log LC 50 (HL-60(TB)): −4.00 mol/L | Log GI 50 (HCC-2998): −5.69 mol/L | Log LC 50 (HCC-2998): −4.29 mol/L | Log GI 50 (OVCAR-3): −5.32 mol/L | Log LC 50 (OVCAR-3): −4.00 mol/L | Log GI 50 (DU-145): −5.37 mol/L | Log LC 50 (DU-145): −4.00 mol/L | Log GI 50 (SF-268): −5.44 mol/L | Log10 GI50 mean graph midpoint (MG_MID) (human tumor cell lines): −5.14 | Log10 LC50 mean graph midpoint (MG_MID) (human tumor cell lines): −4.04 | Log10 TGI mean graph midpoint (MG_MID) (human tumor cell lines): −4.26
